# Assay results reported in patent US10221171B2, “Oxathiazole thiazolium Hsp 70 inhibitors” (THE REGENTS OF THE UNIVERSITY OF CALIFORNIA, priority 2015, dated 2019).
# Like-named read-outs stand apart in the source and are kept apart here.
# Columns and labels:
# Format in all cases: cell-based
# MDA-MB-231 = test: MTT cell viability assay, MDA-MB-231; conditions: Homo sapiens
# Experimental: (§1) Cells were then treated with compound at various concentrations in 0.2 mL media. After the 72-hour incubation period, cells were washed in PBS (3×100 μL), and 10 μL MTT reagent was added with 100 μL fresh media. Cells were then incubated for 4 hr in a humidified chamber at 37° C. with 5% CO2. Insoluble formazan crystals were solubilized by addition of 0.1 mL detergent solution (4 hr at room temp., dark). Resulting colored solutions were then quantified at an absorbance of 570 nm.
# MEF (C57BL/6) = test: MTT cell viability assay, MEF (C57BL/6); conditions: Mus musculus
# Experimental: as §1
# MCF-7 = test: MTT cell viability assay, MCF-7; conditions: Homo sapiens, read-out: IC50/μM MCF-7
# Experimental: as §1
# [1] = MTT, 72-hour incubation, read-out: IC50/μM MEF (C57BL/6)
# [2] = MDA-MB-231, 72 h, 72-hour incubation
# [3] = 72 h, read-out: IC50/μM MEF (C57BL/6), MTT, 72-hour incubation
# [4] = MCF7, 72 h, MTT, 72-hour incubation
"IC50 (MDA-MB-231; MDA-MB-231, 72-hour incubation) [µM]","IC50 (MCF-7; MCF7, MTT, 72-hour incubation) [µM]",SMILES,IC50 (MEF (C57BL/6); [1]) [µM],IC50 (MDA-MB-231; [2]) [µM],IC50 (MEF (C57BL/6); [3]) [µM],IC50 (MCF-7; [4]) [µM],"IC50 (MCF-7; MCF7, 72 h) [µM]"
1.8 ± 0.3,1.58 ± 0.18,CCn1c(=O)/c(=C2\Sc3cc(Cl)ccc3N2C)s/c1=C\c1scc[n+]1Cc1ccccc1OC(C)=O [JG-247],6.1 ± 0.3,–,–,–,–
0.11 ± 0.01,0.14 ± 0.01,CCn1c(=O)/c(=C2\Sc3cc(C)ccc3N2C)s/c1=C\c1scc[n+]1Cc1ccsc1C(=O)OC [JG-248],1.2 ± 0.2,–,–,–,–
–,–,CCn1c(=O)/c(=C2\Sc3cc(SC)ccc3N2C)s/c1=C\c1scc[n+]1Cc1ccccc1 [JG-249],–,0.12 ± 0.01,1.7 ± 0.1,0.13 ± 0.01,–
–,–,CCn1c(=O)/c(=C2\Sc3cc(OC)ccc3N2C)s/c1=C\c1scc[n+]1Cc1ccccc1 [JG-250],2 ± 0.1,0.16 ± 0.01,–,0.13 ± 0.01,–
1.1 ± 0.1,2.5 ± 0.5,CCn1c(=O)/c(=C2\Sc3cc(F)c(F)cc3N2C)s/c1=C\c1scc[n+]1Cc1ccccc1 [JG-251],0.91 ± 0.06,–,–,–,–
–,–,CCn1c(=O)/c(=C2\Sc3cc(Cl)ccc3N2C)s/c1=C\c1scc[n+]1Cc1ccccc1SC(F)(F)F [JG-253],–,0.16 ± 0.01,3.7 ± 0.2,0.13 ± 0.01,–
0.1 ± 0.01,0.65 ± 0.13,CCn1c(=O)/c(=C2\Sc3cc(F)ccc3N2C)s/c1=C\c1scc[n+]1Cc1ccccc1SC(F)(F)F [JG-254],1.5 ± 0.1,–,–,–,–
–,–,CCn1c(=O)/c(=C2\Sc3cc(Cl)ccc3N2C)s/c1=C\c1scc[n+]1Cc1ccc(Cl)cc1 [JG-255],–,0.41 ± 0.06,3.1 ± 0.3,1.45 ± 0.13,–
> 20,> 5,CCn1c(=O)/c(=C2\SCCN2C)s/c1=C\c1scc[n+]1Cc1ccccc1 [JG-258],> 10,–,–,–,–
6.7 ± 0.5,> 5,CCn1c(=O)/c(=C2\Sc3cc(F)ccc3N2C)s/c1=C\c1scc[n+]1Cc1cnc(Cl)s1 [JG-260],8.2 ± 0.4,–,–,–,–
> 20,> 5,CCn1c(=O)/c(=C2\Sc3cc(F)ccc3N2C)s/c1=C\c1scc[n+]1Cc1csc(NC(C)=O)n1 [JG-262],> 10,–,–,–,–
–,–,CCn1c(=O)/c(=C2\Sc3cc(Cl)ccc3N2C)s/c1=C\c1scc[n+]1Cc1ccccc1OC [JG-263],–,0.12 ± 0.01,1.5 ± 0.1,–,0.4 ± 0.03
0.24 ± 0.03,0.49 ± 0.04,CCn1c(=O)/c(=C2\Sc3cc(F)ccc3N2C)s/c1=C\c1scc[n+]1Cc1ccccc1OC [JG-264],1.4 ± 0.1,–,–,–,–
–,–,CCn1c(=O)/c(=C2\Sc3cc(Cl)ccc3N2C)s/c1=C\c1scc[n+]1Cc1occc1C(=O)OC [JG-265],–,0.13 ± 0.01,2.7 ± 0.1,0.81 ± 0.09,–
0.3 ± 0.02,0.87 ± 0.11,CCn1c(=O)/c(=C2\Sc3cc(F)ccc3N2C)s/c1=C\c1scc[n+]1Cc1occc1C(=O)OC [JG-266],2.7 ± 0.2,–,–,–,–
> 20,> 5,CCn1c(=O)/c(=C2\Sc3cc(F)ccc3N2C)s/c1=C\c1scc[n+]1Cc1c(C)noc1C [JG-268],> 10,–,–,–,–
0.26 ± 0.04,0.18 ± 0.01,CCn1c(=O)/c(=C2\Sc3cc(Cl)ccc3N2C)s/c1=C\c1scc[n+]1CCc1ccccc1 [JG-269],2.2 ± 0.1,–,–,–,–

"IC50 (MDA-MB-231; MDA-MB-231, 72-hour incubation) [µM]","IC50 (MCF-7; MCF7, MTT, 72-hour incubation) [µM]",SMILES,IC50 (MEF (C57BL/6); [1]) [µM],IC50 (MDA-MB-231; [2]) [µM],IC50 (MEF (C57BL/6); [3]) [µM],IC50 (MCF-7; [4]) [µM],"IC50 (MCF-7; MCF7, 72 h) [µM]"
–,–,CCn1c(=O)/c(=C2\Sc3cc(C)ccc3N2C)s/c1=C\c1scc[n+]1Cc1ccccc1OC(F)(F)F [JG-270],–,0.077 ± 0.009,0.75 ± 0.05,0.064 ± 0.005,–
–,–,CCn1c(=O)/c(=C2\Sc3cc(Cl)ccc3N2C)s/c1=C\c1scc[n+]1Cc1cccc(Cl)c1 [JG-271],–,0.51 ± 0.06,0.69 ± 0.03,0.26 ± 0.02,–
0.77 ± 0.1,0.36 ± 0.02,CCn1c(=O)/c(=C2\Sc3cc(F)ccc3N2C)s/c1=C\c1scc[n+]1Cc1cccc(Cl)c1 [JG-272],0.62 ± 0.03,–,–,–,–
> 20,> 5,CCn1c(=O)/c(=C2\SCCN2C)s/c1=C\c1ccccn1 [JG-273],> 10,–,–,–,–
0.08 ± 0.008,0.098 ± 0.008,CCn1c(=O)/c(=C2\Sc3cc(Cl)ccc3N2C)s/c1=C\c1scc[n+]1Cc1nc(C)sc1C [JG-274],4.2 ± 0.4,–,–,–,–
0.3 ± 0.03,0.27 ± 0.03,CCn1c(=O)/c(=C2\Sc3cc(F)ccc3N2C)s/c1=C\c1scc[n+]1Cc1nc(C)sc1C [JG-275],1.6 ± 0.1,–,–,–,–
0.27 ± 0.03,0.24 ± 0.02,C=CCn1c(=O)/c(=C2\Sc3ccccc3N2C)s/c1=C\c1scc[n+]1Cc1ccccc1 [JG-276],2.5 ± 0.1,–,–,–,–
0.49 ± 0.05,0.39 ± 0.03,CN1/C(=c2\s/c(=C\c3scc[n+]3Cc3ccccc3)n(C)c2=O)Sc2ccccc21 [JG-277],4.1 ± 0.2,–,–,–,–
0.23 ± 0.04,0.39 ± 0.06,CCn1c(=O)/c(=C2\Sc3cc(Br)ccc3N2C)s/c1=C\c1scc[n+]1Cc1ccsc1 [JG-278],3.4 ± 0.2,–,–,–,–
0.15 ± 0.01,0.14 ± 0.03,CCn1c(=O)/c(=C2\Sc3cc(C)ccc3N2C)s/c1=C\c1scc[n+]1Cc1ccsc1 [JG-279],2.2 ± 0.1,–,–,–,–
0.16 ± 0.02,0.6 ± 0.06,CN1/C(=c2\s/c(=C\c3scc[n+]3Cc3ccccc3)n(C)c2=O)Sc2cc(Cl)ccc21 [JG-281],5.7 ± 0.3,–,–,–,–
0.26 ± 0.03,0.29 ± 0.04,CN1/C(=c2\s/c(=C\c3scc[n+]3Cc3ccccc3)n(C)c2=O)Sc2cc(F)cc(F)c21 [JG-282],2.5 ± 0.1,–,–,–,–
0.088 ± 0.005,0.063 ± 0.007,CCn1c(=O)/c(=C2\Sc3cc(C)ccc3N2C)s/c1=C\c1scc[n+]1Cc1ccccc1Cl [JG-283],0.45 ± 0.02,–,–,–,–
0.09 ± 0.005,0.09 ± 0.006,CCn1c(=O)/c(=C2\Sc3cc(C)ccc3N2C)s/c1=C\c1scc[n+]1Cc1ccccc1C [JG-284],0.64 ± 0.03,–,–,–,–
0.062 ± 0.01,0.078 ± 0.003,CCn1c(=O)/c(=C2\Sc3cc(C)ccc3N2C)s/c1=C\c1scc[n+]1Cc1ccccc1C(F)(F)F [JG-285],0.66 ± 0.06,–,–,–,–
0.14 ± 0.01,0.27 ± 0.02,CCn1c(=O)/c(=C2\Sc3cc(C)ccc3N2C)s/c1=C\c1scc[n+]1Cc1ccc(C(F)(F)F)o1 [JG-286],5 ± 0.6,–,–,–,–
1.3 ± 0.3,1.73 ± 0.2,CCn1c(=O)/c(=C2\Sc3cc(Cl)ccc3N2C)s/c1=C\c1scc[n+]1Cc1ccccc1S(C)(=O)=O [JG-287],> 10,–,–,–,–

SMILES,"IC50 (MDA-MB-231; MDA-MB-231, 72-hour incubation) [µM]","IC50 (MCF-7; MCF7, MTT, 72-hour incubation) [µM]",IC50 (MEF (C57BL/6); [1]) [µM],IC50 (MDA-MB-231; [2]) [µM],IC50 (MEF (C57BL/6); [3]) [µM],IC50 (MCF-7; [4]) [µM],"IC50 (MCF-7; MCF7, 72 h) [µM]"
CCn1c(=O)/c(=C2\Sc3cc([N+](=O)[O-])ccc3N2C)s/c1=C\c1scc[n+]1Cc1ccccc1 [JG-252],–,> 5,–,4.8 ± 0.4,2.8 ± 0.1,–,–
CCn1c(=O)/c(=C2\Sc3cc(Cl)ccc3N2C)s/c1=C\c1scc[n+]1Cc1ccc(Cl)cc1 [JG-256],1.1 ± 0.1,0.72 ± 0.06,2.2 ± 0.1,–,–,–,–
CCn1c(=O)/c(=C2\Sc3cc(Cl)ccc3N2C)s/c1=C\c1scc[n+]1Cc1ccnc(Cl)c1 [JG-257],–,> 5,1.1 ± 0.1,7.2 ± 0.8,–,–,–
CCn1c(=O)/c(=C2\Sc3cc(Cl)ccc3N2C)s/c1=C\c1scc[n+]1Cc1cnc(Cl)s1 [JG-259],–,> 5,–,2.3 ± 0.3,8.9 ± 0.8,–,–
CCn1c(=O)/c(=C2\Sc3cc(Cl)ccc3N2C)s/c1=C\c1scc[n+]1Cc1csc(NC(C)=O)n1 [JG-261],> 20,> 5,–,–,4.2 ± 0.6,–,–
CCn1c(=O)/c(=C2\Sc3cc(Cl)ccc3N2C)s/c1=C\c1scc[n+]1Cc1c(C)noc1C [JG-267],10 ± 2,> 5,–,–,7.6 ± 0.3,–,–
C=CCn1c(=O)/c(=C2\Sc3cc(Cl)ccc3N2C)s/c1=C\c1scc[n+]1Cc1ccccc1 [JG-280],0.1 ± 0.01,–,–,–,2.4 ± 0.1,0.17 ± 0.02,–
